Results reported in paper PMC3661587, “Estrone-3-Sulphate, a Potential Novel Ligand for Targeting Breast Cancers” (PLoS ONE, 2013).
Where two headings read alike, the source gives them in different places.

Settings: mouse, in vivo
Procedure: Solid phase extraction (SPE) and HPLC analysis of plasma were performed as previously described with minor modifications, [23]. SPE was performed using Sep-Pak C18 columns (Waters, Mississauga, ON). The column was activated using methanol, followed by water. 100 µL of plasma was then loaded on to the activated column. This was followed by successive washing steps with water and hexane. The analyte was eluted from the column using methanol and then dried under a stream of N2. The sample was reconstituted in DMSO:Methanol 1∶1 v/v prior to HPLC analysis. […] The radioactivity in each eluate was determined by liquid scintillation counting. […] The methanol eluates were used for HPLC analysis.
Separation was performed using a Waters C18 reversed-phase HPLC column (XTerra RP-C18, 5 µm, 4.6×250 mm I.D.) Analytes were eluted using an isocratic-gradient of 20 mM ammonium sulphate buffer (solvent A) and methanol (solvent B). The mobile phase consisted of solvent A/solvent B; 60/40% for 0–5 min, followed by a linear gradient of 60/40% to 25/75% for 5–45 and 25/75% for 45–50 min at a flow rate of 1.0 mL/min and UV detection at 280 nm. The HPLC eluate from the UV detector was collected every minute for over 50 min in eppendorf tubes and radioactivity in each sample was determined.

Compound	% of total radioactivity in plasma (2 h) [%]	% of total radioactivity in plasma (6 h) [%]	% of total radioactivity in plasma (48 h) [%]
C[C@]12CC[C@@H]3c4ccc(O)cc4CC[C@H]3[C@@H]1CCC2=O [Estrone, estrone]	1.02±0.24	1.7±0.8	
C[C@]12CC[C@@H]3c4ccc(O)cc4CC[C@H]3[C@@H]1CC[C@@H]2O [Estradiol, estradiol]	2.2±1.23	3.2±0.2	3.2±0.45
